Measurements as given in article PMC4263137, “Positron emission tomography and functional characterization of a complete PBR/TSPO knockout” (Nature Communications, 2014).

Biological target: T1, PBR/TSPO (18-kDa translocator protein) (Mus musculus, UniProt P50637)
T1 construct: native protein in kidney and testis membranes of Tspo+/+ mice
Assay: [3H]PK11195 saturation radioligand binding on tissue membranes; autoradiography; no binding in Tspo-/- mice

T1 sequence (P50637 whole entry): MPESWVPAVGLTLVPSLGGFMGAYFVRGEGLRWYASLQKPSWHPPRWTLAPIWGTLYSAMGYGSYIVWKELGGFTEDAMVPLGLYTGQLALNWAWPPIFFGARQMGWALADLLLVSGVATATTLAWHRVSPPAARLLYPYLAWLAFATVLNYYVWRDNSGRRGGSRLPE

Kd: 12.9 nM
SMILES: CCC(C)N(C)C(=O)c1cc2ccccc2c(-c2ccccc2Cl)n1 (stereo not shown) [PK11195, 1-(2-chlorophenyl)-N-methyl-(1-methylpropyl)-3 isoquinolinecarboxamide]
